Earlier results, collected in patent US20250360119A1, “THIAZOLIDINEDIONES FOR THE TREATMENT OF MUSCULAR DYSTROPHIES” (The Johns Hopkins University, priority 2022, published 2025).

Legend:
[1] = system: KKAy mice
[2] = clinical studies
[3] = system: aged mice; details: injected into the muscle directly

For `CC1(COc2ccc(CC3SC(=O)NC3=O)cc2)CCCCC1` (stereo not shown) [ciglitazone, 5-[4-(1-methylcyclohexylmethoxy)benzyl]-thiazolidine-2,4-dione], the blood glucose levels [1] is given as “reduce blood glucose levels without increasing insulin secretion” and the peripheral insulin resistance [1] is given as “reduce peripheral insulin resistance”.

In the case of `CN(CCOc1ccc(CC2SC(=O)NC2=O)cc1)c1ccccn1` (stereo not shown) [rosiglitazone], the cardiovascular toxicity [2] is given as “no longer considered significant issues”.

B1: recombinant GDF3: recombinant Growth Differentiation Factor 3, a member of the TGFβ family (protein, UniProt Q9NR23 251-364, looked up)
Growth/differentiation factor …: AAIPVPKLSCKNLCHRHQLFINFRDLGWHKWIIAPKGFMANYCHGECPFSLTISLNSSNYAFMQALMHAVDPEIPQAVCIPTKLSPISMLYQDNNDNVILRHYEDMVVDECGCG
For B1, the “delay in muscle regeneration after CTX injury” value [3] is given as “able to alleviate some of the delay”.
